This is an account of results in patent US10202371B2, “Oxazolidin-2-one-pyrimidine derivatives and the use thereof as phosphatidylinositol-3-kinase inhibitors” (Novartis AG, priority 2012, dated 2019).

Where two headings read alike, the source gives them in different places.

In assay [1] the target is human PI3Kbeta p110 catalytic subunit (Rat-1 cells) (Homo sapiens (Human), UniProt P42338). In words: Cellular assay PI3Kbeta, p-Akt(S473) SureFire in Rat-1_PI3Kbeta cells. The assay is classed as cell-based. The conditions noted are these: p-AKT(Ser473), 1 h treatment; read-out: Rat1-PI3Kb/IC50. An excerpt: AlphaScreen (Amplified Luminescent Proximity Homogeneous Assay, ALPHA, Perkin Elmer) is a non-radioactive bead-based proximity assay technology to study biomolecular interactions in a homogenous microtiter plate format. The brand name SureFire denotes AlphaScreen assays that are adapted to quantify the phosphorylation of endogenous cellular proteins in cell lysates, by using matched antibody pairs, which consist of an anti-phospho-kinase and an anti-kinase antibody. The assay allows characterization of kinase signaling in cells as well as measurement of kinase inhibitor effects. The AlphaScreen technology provides several advantages over standard assay techniques such as ELISA, as it avoids time-consuming washing procedures and reduces plate handling. Furthermore, it is miniaturizable at least to a 384-well format and provides sensitivity down to the femtomolar range, dependent on the affinity of the antibodies included in the individual AlphaScreen SureFire assay kit. High sensitivity is reached by an intrinsic amplification mechanism, which involves production of singlet oxygen molecules. SureFire assay kits are commercially available for specific targets and include pairs of validated antibodies (PerkinElmer). This report describes common procedures applied for AlphaScreen SureFire assays and respective semi-automated steps for routine kinase inhibitor profiling in cell-based assays.
The Rat-1 cell lines stably overexpressing activated PI3K class I isoforms Rat-1 pBABEpuro Myr-HA-hp110 delta (Rat-1_PI3Kdelta) and Rat-1 pBABEpuro Myr-HA-hp110alpha (Rat-1_PI3Kalpha) and Rat-1 pBABEpuro Myr-HA-hp110 beta (Rat-1_PI3beta) were prepared as described (Maira S M, Stauffer F, Brueggen J, Furet P, Schnell C, Fritsch C, Brachmann S, Chène P, de Pover A, Schoemaker K, Fabbro D, Gabriel D, Simonen M, Murphy L, Finan P, Sellers W, Garcia-Echeverria C (2008), Mol Cancer Ther. 7:1851-63 and Maira S M, Pecchi S, Brueggen J, Huh K, Schnell C, Fritsch C, Nagel T, Wiesmann M, Brachmann S, Dorsch M, Chène P, Schoemaker K, De Pover A, Menezes D, Fabbro D, Sellers W, Garcia-Echeverria C, Voliva CF (2011), Mol. Cancer Ther., accepted). All cell lines were cultivated in complete growth medium (DMEM high glucose, 10% (v/v) fetal bovine serum, 1% (v/v) MEM NEAA, 10 mM HEPES, 2 mM L-glutamine, puromycin (10 μg/mL for Rat-1_PI3Kdelta and Rat-1_PI3Kalpha, 4 ug/mL for Rat-1_PI3beta), 1% (v/v) Pen/Strep) to 90% confluency at 37° C./5% CO2/90% humidity in a humidified CO2 incubator and were split twice a week. […]

For assay [2], the system named is HaCaT keratinocyte cell line. As to the kind of experiment: BrdU cell proliferation assay HaCaT keratinocytes. The assay is classed as cell-based. The conditions noted are these: Homo sapiens, BrdU incorporation. How it is done: Cells of SCC or keratinocyte lines (Detroit562, SCC12B2, SCL1, HaCaT) were used for the proliferation assays when they had reached about 80% to 90% confluency. Cells were then harvested after trypsin-mediated dislodgement from culture flasks, washed in culture medium containing 10% FCS, counted in a hemocytometer and diluted complete culture medium with 5% FCS to obtain a cell density of 5×10^4 cells/ml. 100 μl of this cell suspension (e.g. 5000 cells) were transferred into each well of a 96-well white walled tissue culture plate (Corning-Costar article #3917). Cells were then allowed to settle by placing them in the CO2 incubator for 45 to 60 minutes. Subsequently, a volume of 100 μl of culture medium containing twice the desired final concentration of the test compound was added to each well of quadruplicate wells. […] The cell proliferation was determined on the basis of incorporation of bromodesoxy-uridin (BrdU) into cellular DNA using the chemiluminescent BrdU Cell Proliferation ELISA (Roche article #11 669 915 001). […] Incorporation of BrdU into the DNA was detected by BrdU-specific antibodies and quantified on the basis of an antibody-coupled luciferase mediated signal generation. The luminescence emission was measured in a Victor light 1420 Luminescence counter, (Perkin Elmer) and expressed as relative luminescence units (e.g. data points given as RLU/s) per second. […]
(In general: Incorporation of labelled thymidine or its analogues reports DNA synthesis.)

Chain of human PI3Kbeta p110 catalytic subunit (Rat-1 cells) (P42338 whole entry): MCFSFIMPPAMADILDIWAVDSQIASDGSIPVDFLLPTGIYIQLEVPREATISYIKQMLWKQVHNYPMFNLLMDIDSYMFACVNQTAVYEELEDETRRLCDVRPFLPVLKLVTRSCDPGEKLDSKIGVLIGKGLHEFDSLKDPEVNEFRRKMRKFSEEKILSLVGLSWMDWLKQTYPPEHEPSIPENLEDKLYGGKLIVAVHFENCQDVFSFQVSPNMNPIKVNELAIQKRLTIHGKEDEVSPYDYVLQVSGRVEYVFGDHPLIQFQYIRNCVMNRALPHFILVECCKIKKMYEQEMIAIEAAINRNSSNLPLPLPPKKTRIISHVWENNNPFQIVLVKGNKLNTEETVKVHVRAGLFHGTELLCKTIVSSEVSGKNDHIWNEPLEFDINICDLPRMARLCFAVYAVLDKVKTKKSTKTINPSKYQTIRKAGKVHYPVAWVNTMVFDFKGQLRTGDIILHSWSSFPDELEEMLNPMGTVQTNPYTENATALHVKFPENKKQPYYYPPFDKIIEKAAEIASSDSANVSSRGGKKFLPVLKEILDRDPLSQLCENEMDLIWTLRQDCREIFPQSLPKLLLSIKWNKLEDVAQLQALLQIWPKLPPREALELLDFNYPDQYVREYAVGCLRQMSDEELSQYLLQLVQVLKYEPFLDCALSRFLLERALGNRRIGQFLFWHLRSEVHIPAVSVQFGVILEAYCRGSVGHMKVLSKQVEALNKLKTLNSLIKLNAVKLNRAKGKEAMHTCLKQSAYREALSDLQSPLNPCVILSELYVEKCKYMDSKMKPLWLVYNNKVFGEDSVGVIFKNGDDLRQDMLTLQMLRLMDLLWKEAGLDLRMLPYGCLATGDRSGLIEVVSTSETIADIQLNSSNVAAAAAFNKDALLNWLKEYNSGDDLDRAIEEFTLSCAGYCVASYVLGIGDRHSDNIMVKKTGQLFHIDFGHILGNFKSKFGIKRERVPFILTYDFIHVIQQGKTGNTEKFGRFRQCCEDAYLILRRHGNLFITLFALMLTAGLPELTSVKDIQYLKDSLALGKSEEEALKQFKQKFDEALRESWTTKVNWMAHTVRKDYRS
Chain of human PI3Kbeta p110 catalytic subunit (Rat-1 cells) (Q63787 whole entry partner): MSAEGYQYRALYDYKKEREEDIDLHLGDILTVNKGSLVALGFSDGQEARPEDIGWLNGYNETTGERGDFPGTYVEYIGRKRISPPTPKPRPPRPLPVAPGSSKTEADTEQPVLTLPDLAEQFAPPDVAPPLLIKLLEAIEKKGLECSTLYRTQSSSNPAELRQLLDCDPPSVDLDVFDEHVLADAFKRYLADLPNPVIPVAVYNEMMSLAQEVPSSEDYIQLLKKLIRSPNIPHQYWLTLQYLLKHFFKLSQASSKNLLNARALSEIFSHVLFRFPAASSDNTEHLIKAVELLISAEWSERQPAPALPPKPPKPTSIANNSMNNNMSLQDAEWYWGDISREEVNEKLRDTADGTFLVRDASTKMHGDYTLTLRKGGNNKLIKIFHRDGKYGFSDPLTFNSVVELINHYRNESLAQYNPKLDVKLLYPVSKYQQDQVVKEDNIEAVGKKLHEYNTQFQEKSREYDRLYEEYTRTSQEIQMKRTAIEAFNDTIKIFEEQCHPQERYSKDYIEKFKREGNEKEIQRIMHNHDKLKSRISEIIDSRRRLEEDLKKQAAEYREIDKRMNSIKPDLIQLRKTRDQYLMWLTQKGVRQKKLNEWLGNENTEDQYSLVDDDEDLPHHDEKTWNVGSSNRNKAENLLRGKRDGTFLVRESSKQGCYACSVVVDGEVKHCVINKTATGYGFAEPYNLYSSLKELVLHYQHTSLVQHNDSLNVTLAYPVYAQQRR

As for `CC[C@H]1[C@H](c2ccc(OC)cc2)OC(=O)N1c1cc(-c2cnc(N)nc2C(F)(F)F)nc(N2CCOCC2)n1` (relative stereo) [Example 2, (4S*,5S*)-3-(2′-amino-2-morpholino-4′-(trifluoromethyl)-[4,5′-bipyrimidin]-6-yl)-4-ethyl-5-(4-methoxyphenyl)oxazolidin-2-one], the IC50 in assay [1] came out at 751 nM. As for `C[C@H]1[C@H](c2nccs2)OC(=O)N1c1cc(-c2cnc(N)nc2C(F)(F)F)nc(N2CCOCC2)n1` [Example 1, (4S,5R)-3-(2′-Amino-2-morpholin-4-yl-4′-trifluoromethyl-[4,5′]bipyrimidinyl-6-yl)-4-methyl-5-thiazol-2-yl-oxazolidin-2-one], the IC50 in assay [2] (measurement #1, read-out: anti-proliferative IC50 HaCaT measurement #1) is 282 nM; in assay [2] (measurement #2, read-out: anti-proliferative IC50 HaCaT measurement #2), 298 nM.

For the molecule `COc1ccc([C@@H]2OC(=O)N(c3cc(-c4cnc(N)nc4C(F)(F)F)nc(N4CCOCC4)n3)[C@H]2CO)cc1` [Example 3, (4S,5S)-3-(2′-Amino-2-morpholino-4′-(trifluoromethyl)-[4,5′-bipyrimidin]-6-yl)-4-(hydroxymethyl)-5-(4-methoxyphenyl)oxazolidin-2-one], the IC50 in assay [1] was found to be 33 nM. On the same count and under the same terms, the same measure for `CCC1C(c2cccnc2)OC(=O)N1c1cc(-c2cnc(N)nc2C(F)(F)F)nc(N2CCOCC2)n1` (stereo not shown) [Example 8]: 26 nM. On to `Nc1ncc(-c2cc(N3C(=O)O[C@@H](c4ccccc4)[C@@H]3CO)nc(N3CCOCC3)n2)c(C(F)(F)F)n1` [Example 10], for which the IC50 in assay [1] was found to be 23 nM. With `C[C@H]1[C@@H](c2nccs2)OC(=O)N1c1cc(-c2cnc(N)nc2C(F)(F)F)nc(N2CCOCC2)n1` [Example 11], in assay [1], the IC50 was 26 nM.
